One may read the IC50 as the concentration at which inhibition is half-maximal.

Consider two molecules from paper PMC4723341, “Ribonuclease H/DNA Polymerase HIV-1 Reverse Transcriptase Dual Inhibitor: Mechanistic Studies on the Allosteric Mode of Action of Isatin-Based Compound RMNC6” (PLoS ONE, 2016).

Structures are written as SMILES.

For assay [1], the system named is HIV-1 RT-associated RNase H activity, V106A RT. As to the kind of experiment: RNase H activity assay, V106A RT. As to conditions: V106A RT. The assay is classed as biochemical, HIV-1 group M subtype B. How it is done: HIV RT-associated RNase H activity was measured as described in 100 μL reaction volume containing 50 mM Tris-HCl buffer pH 7.8, 6 mM MgCl2, 1 mM dithiothreitol (DTT), 80 mM KCl, 0.25 μM hybrid RNA/DNA 5'-GAUCUGAGCCUGGGAGCU-Fluorescin-3' (HPLC, dry, QC: Mass Check) (available from Metabion) 5'-Dabcyl-AGCTCCCAGGCTCAGATC-3'(HPLC, dry, QC: Mass Check), increasing concentrations of inhibitors, whose dilution were made in water, and different amount of enzymes according to a linear range of dose-response curve: 20 ng of WT RT; 60 ng K103N RT; 37.5 ng V106A RT; 75 ng V108A RT; 5 ng Y181C RT; 50 ng Y188A RT; 30 ng Y188L RT; 100 ng E224A RT; 37.5 ng P225A RT; 20 ng P226A RT; 18 ng F227A RT; 30 ng L228A RT; 30 ng W229A RT; 10 ng M230A RT; 30 ng G231A RT; 62.5 ng N474A RT; 1 μg Y501A RT; 100 ng A502F RT; 37.5 ng A508V RT; 38 ng HIV-1 group O RT. The reaction mixture was incubated for 1 h at 37°C, stopped by addition of EDTA and products were measured with a multilabel counter plate reader Victor 3 (Perkin Elmer model 1420–051) equipped with filters for 490/528 nm (excitation/emission wavelength)

Another assay has as its system HIV-2 RT. Details: method as in PMID 15741178. The following applies: HIV-2 RT versus HIV-1 RT; cited from earlier work.
The target of assay [2] is T1, HIV-1 RT-associated RDDP activity, N474A RT (Human immunodeficiency virus type 1 group M subtype B, UniProt P04585, N1061A).
T1 construct: The 1:1 ration between the p66/p51 subunits was also verified; made in house; host or cells: E. coli M15
As to the kind of experiment: biochemical. Details: species or system HIV-1 group M subtype B.

Assay [3] concerns HIV-1 RT-associated RDDP activity, M230A RT. Kind of assay: biochemical. Set-up: species or system HIV-1 group M subtype B. The following applies: M230A RT.
The target of assay [4] is T2, HIV-1 RT-associated RDDP activity, M230A RT (Human immunodeficiency virus type 1 group M subtype B, UniProt P04585, M817A).
T2 construct: The 1:1 ration between the p66/p51 subunits was also verified; made in house; host or cells: E. coli M15
Kind of assay: biochemical. Set-up: species or system HIV-1 group M subtype B.

The target in assay [5] is T3, HIV-1 RT-associated RDDP activity, P226A RT (Human immunodeficiency virus type 1 group M subtype B, UniProt P04585, P813A).
T3 construct: The 1:1 ration between the p66/p51 subunits was also verified; made in house; host or cells: E. coli M15
Kind of assay: biochemical. Details: species or system HIV-1 group M subtype B.

For assay [6], the target named is T4, HIV-1 RT-associated RDDP activity, Y181C RT (Human immunodeficiency virus type 1 group M subtype B, UniProt P04585, Y768C).
T4 construct: The 1:1 ration between the p66/p51 subunits was also verified; made in house; host or cells: E. coli M15
Kind of assay: RDDP activity assay, Y181C RT. The assay is classed as biochemical, HIV-1 group M subtype B.

Assay [7] has as its target DNA polymerase activity of HIV-1 group O RT and wild-type and mutant HIV-1 group M subtype B RTs. Kind of assay: RDDP assays, HIV-1 group O RT and wild-type and mutant HIV-1 group M subtype B RTs together. The assay is classed as biochemical. The following applies: wild-type and mutant (K103N, Y181C, Y188L) group M subtype B RTs, read-out: IC50 RDDP, range over all enzymes.

Assay [8] concerns the target T5, HIV-1 RT-associated RDDP activity, Y188A RT (Human immunodeficiency virus type 1 group M subtype B, UniProt P04585, Y775A).
T5 construct: The 1:1 ration between the p66/p51 subunits was also verified; made in house; host or cells: E. coli M15
Kind of assay: biochemical. Details: species or system HIV-1 group M subtype B.

Assay [9] deals with HIV-1 RT-associated RDDP activity, Y188A RT. As to the kind of experiment: biochemical. The following applies: Y188A RT. Details: species or system HIV-1 group M subtype B.
In assay [10] the target is T6, HIV-1 RT-associated RDDP activity, P225A RT (Human immunodeficiency virus type 1 group M subtype B, UniProt P04585, P812A).
T6 construct: The 1:1 ration between the p66/p51 subunits was also verified; made in house; host or cells: E. coli M15
Kind of assay: biochemical. Details: species or system HIV-1 group M subtype B.

The target in assay [11] is T7, HIV-1 RT-associated RDDP activity, E224A RT (Human immunodeficiency virus type 1 group M subtype B, UniProt P04585, E811A).
T7 construct: The 1:1 ration between the p66/p51 subunits was also verified; made in house; host or cells: E. coli M15
Kind of assay: biochemical. Details: species or system HIV-1 group M subtype B.

Assay [12] deals with T8, HIV-1 RT-associated RDDP activity, wt RT (Human immunodeficiency virus type 1 group M subtype B, UniProt P04585).
T8 construct: The 1:1 ration between the p66/p51 subunits was also verified; made in house; host or cells: E. coli M15
Kind of assay: biochemical. Details: species or system HIV-1 group M subtype B.

The target in assay [13] is T9, HIV-1 RT-associated RDDP activity, K103N RT (Human immunodeficiency virus type 1 group M subtype B, UniProt P04585, K690N).
T9 construct: The 1:1 ration between the p66/p51 subunits was also verified; made in house; host or cells: E. coli M15
Kind of assay: RDDP activity assay, K103N RT. The assay is classed as biochemical, HIV-1 group M subtype B.

The target in assay [14] is T10, HIV-1 RT-associated RDDP activity, Y501A RT (Human immunodeficiency virus type 1 group M subtype B, UniProt P04585, Y1088A).
T10 construct: The 1:1 ration between the p66/p51 subunits was also verified; made in house; host or cells: E. coli M15
Kind of assay: biochemical. Set-up: species or system HIV-1 group M subtype B.

For assay [15], the target named is T11, HIV-1 RT-associated RDDP activity, A502F RT (Human immunodeficiency virus type 1 group M subtype B, UniProt P04585, A1089F).
T11 construct: The 1:1 ration between the p66/p51 subunits was also verified; made in house; host or cells: E. coli M15
As to the kind of experiment: biochemical. Details: species or system HIV-1 group M subtype B.

The target in assay [16] is T12, HIV-1 RT-associated RDDP activity, G231A RT (Human immunodeficiency virus type 1 group M subtype B, UniProt P04585, G818A).
T12 construct: The 1:1 ration between the p66/p51 subunits was also verified; made in house; host or cells: E. coli M15
As to the kind of experiment: biochemical. Set-up: species or system HIV-1 group M subtype B.

For `CC(C)c1ccc(O)c(=O)c(O)c1` [BTP, β-thujaplicinol, reference compound], in [1], the “Fold of increase of RNase H IC50 with respect to wt RT” value is reported as 0.8. Also, in the assay with HIV-2 RT, the “Times less susceptible than the HIV-1 enzyme” value is on record as “about 3.7”.

For `N#Cc1ccc(-c2csc(NN=C3C(=O)Nc4ccccc43)n2)cc1` [RMNC6, (Z)-4-(2-(2-(2-oxoindolin-3-ylidene)hydrazinyl)thiazol-4-yl)benzonitrile], the 50% inhibitory concentration (IC50) was 12.7 ± 1.7 µM in assay [2]; 15 ± 3.5 µM in assay [4]; 18.9 ± 0.7 µM in assay [5]; 5.4 ± 0.3 µM in assay [6]; 5.4 to 20.1 µM in assay [7]; 20.9 ± 4 µM in assay [8]. In addition, the IC50 in [10] was found to be 3.1 ± 0.3 µM; in [11] it was 13.8 ± 4.2 µM; in assay [12], 9.8 ± 1.4 µM; in [13], 13.6 ± 1 µM; in assay [14] it was 6.6 ± 0.1 µM; in assay [15], 17.1 ± 2.1 µM. 10.8 ± 2.4 µM corresponded to half-maximal inhibition in [16] (IC50). Besides, the “Fold of increase of RDDP IC50 with respect to wt RT” value in assay [2] (N474A RT) turned out to be 1.3; in [3], 1.5; in assay [5] (P226A RT), 1.9; in [9] it was 2.1; in assay [10] (P225A RT), 0.3; in assay [11] (E224A RT), 1.4. Further, the “Fold of increase of RDDP IC50 with respect to wt RT” value is 0.7 in assay [14] (Y501A RT), 1.8 in [15] (A502F RT) and 1.1 in assay [16] (G231A RT).
